In US5219740A, “Retroviral gene transfer into diploid fibroblasts for gene therapy” (Fred Hutchinson Cancer Research Center, priority 1987, dated 1993):

Columns and labels:
HDF 1-85 = assay: Drug concentration needed for complete cell killing; format: cell-based, human; settings: Newborn HDF 1-85, scored after 10 days
Experimental: (§1) Three drugs were tested for their ability to kill human diploid fibroblasts (HDF): the neomycin analogue G418, Hygromycin-B (Hygro), and Methotrexate (Mtx). Four HDF lines were isolated from skin biopsies of normal human donors: HDF 78-18, from a […] fetus; HDF 1-85, from newborn foreskin; HDF 79-81, from a person; and HDF 72-46, from a person. The four fibroblast lines were isolated using standard methods (Meth. Cell Biol. 219:255-276, 1980, hereby incorporated by reference) and were maintained in culture for 22 to 31 population doublings using Dulbecco-Vogt Modified Eagles Medium (D MEM) supplemented with 10% fetal bovine serum (FBS). NIH 3T3 immortalized mouse fibroblasts served as a control.
(§2) Cells were seeded at 10^4 per 3.5-cm dish in D MEM plus 10% FBS and drug, except for Mtx selection where 10% dialyzed FBS was used. Drug-resistant cells were scored after 10 days.

HDF 72-46 = assay: as above; format: cell-based, human; settings: Adult HDF 72-46, scored after 10 days
Experimental: as §1, §2

HDF 78-18 = assay: as above; format: cell-based, human; settings: for Drug Concentrations Needed For Complete Cell Killing: Fetal HDF 78-18, scored after 10 days
Experimental: as §1, §2

HDF 79-81 = assay: as above; format: cell-based, human; settings: Adult HDF 79-81, scored after 10 days
Experimental: as §1, §2

NIH 3T3 = assay: as above; format: cell-based, mouse; settings: for Drug Concentrations Needed For Complete Cell Killing: Mouse NIH 3T3, scored after 10 days
Experimental: as §1, §2

[1] = test system: human diploid fibroblast cell lines; assay: Drug killing, summary over HDF lines; format: cell-based
Experimental: as §1, §2

SF03 cells = assay: Adenosine killing of ADA-deficient fibroblasts; format: cell-based, human
Text: (§3) Referring to FIG. 5, the ADA vector LNSAL was made by inserting an ADA cDNA (Valerio, D., et al., Gene 31:147-153, 1984) linked to a SV40 early region enhancer/promoter downstream of the neo gene in N2. Helper-free virus was made by introduction of LNSAL into PA317 amphotropic retrovirus-packaging cells (ATCC No. CRL 9078), as described in Mol. Cell. Biol. 6:2895-2902, 1986, hereby incorporated by reference. […] Using either G418 or adenosine, the expression of either neo and the ADA gene was assayed in LNSAL-infected cells.

[2] = test system: normal human diploid fibroblasts; assay: Adenosine effect on normal fibroblasts; format: cell-based; settings: 2 mM
Text: as §3

CNC1C(O)C(OC2C(N)CC(N)C(OC3OC(C(C)O)C(O)C(O)C3N)C2O)OCC1(C)O (centres unmarked) [Vector G418]
Drug Concentrations Needed For Complete Cell Killing (HDF 1-85; weight of dry powder): 500 µg/mL | Drug Concentrations Needed For Complete Cell Killing (HDF 72-46; weight of dry powder): 500 µg/mL | Drug Concentrations Needed For Complete Cell Killing (HDF 78-18; weight of dry powder): 500 µg/mL | Drug Concentrations Needed For Complete Cell Killing (HDF 79-81; weight of dry powder): 1000 µg/mL | Drug Concentrations Needed For Complete Cell Killing (NIH 3T3; weight of dry powder): 1000 µg/mL

CN(Cc1cnc2nc(N)nc(N)c2n1)c1ccc(C(=O)N[C@@H](CCC(=O)O)C(=O)O)cc1 [Mtx, Methotrexate]
Drug Concentrations Needed For Complete Cell Killing (HDF 1-85; 10% dialyzed FBS): > 1000 µM | Drug Concentrations Needed For Complete Cell Killing (HDF 72-46; 10% dialyzed FBS): > 1000 µM | Drug Concentrations Needed For Complete Cell Killing (HDF 78-18; 10% dialyzed FBS): > 1000 µM | colony formation at the highest concentration of Mtx used (HDF 78-18; HDF 78-18, viable cells remained after 15 days of selection): did not form colonies | Drug Concentrations Needed For Complete Cell Killing (HDF 79-81; 10% dialyzed FBS): > 10 µM | Drug Concentrations Needed For Complete Cell Killing (NIH 3T3; 10% dialyzed FBS): 0.1 µM | concentration that efficiently killed the cells (NIH 3T3; NIH 3T3 cells): 10^-7 M | colony formation at the highest concentration of Mtx used ([1]; all HDF lines with the exception of HDF 78-18): formed colonies | concentration to which the cell lines were resistant to killing ([1]; human diploid fibroblast cell lines): > 10^-5 M | concentration to which the cell lines were resistant to killing ([1]; most human diploid fibroblast cell lines): more than 10^-3 M

Nc1ncnc2c1ncn2[C@@H]1O[C@H](CO)[C@@H](O)[C@H]1O [adenosine]
concentration that kills the cells (SF03 cells): 2 mM | effect on the cells [2]: no effect
